Laboratory results published in patent US8148371B2, “Adenine compound and use thereof” (Dainippon Sumitomo Pharma Co., Ltd., priority 2002, dated 2012).
Read-outs that look alike come from different tables or passages of the source. Marks after values point to notes of the source that are not given here.

Key:
[1] = tested on: plasma esterase; settings: rat plasma, 37° C., 15 minutes
Experimental: The compound of the present invention is added to the serum solution, and the mixture is incubated at 37±0.5° C. for 5 minutes to 2 hours. By quantitatively analyzing at the definite interval the amount of the compound of the present invention remaining in the serum solution with HPLC (high performance liquid chromatography), etc., the constant of quenching velocity calculated and the half life is calculated.
The serum herein means the supernatant fraction obtained by excluding hemocytes and blood coagulation factor from blood by centrifugation, etc. The serum diluted with buffer, etc. can be used.
The metabolic stability of the test compound was presented by the residual amount (%) per the concentration of pre-metabolization.

[2] = Metabolic stability on liver S9 of rat; settings: 37° C.
[3] = tested on: cells of rat spleen; assay: cells; type: cell-based, SD rat; settings: for minimal effective concentration: 24 h, read-out: Minimum effective concentration (interferon inducing activity)
[4] = rat liver S9, test compound 1 μM

SMILES | Residual rate ([1]; test compound 10 μM) [%] | Residual rate [2, 4] [%] | minimal effective concentration [3] [µM] | further results
CCCCOc1nc(N)c2nc(O)n(Cc3cccc(C(=O)OC(C)C)c3)c2n1 [Example 3, 2-Butoxy-8-hydroxy-9-(3-isopropoxycarbonylbenzyl)adenine] | 20 | 19 |  | 
CCCCOc1nc(N)c2nc(O)n(Cc3cccc(C(=O)OCC(F)(F)F)c3)c2n1 [Example 4, 2-Butoxy-8-hydroxy-9-{3-(2,2,2-trifluorroethoxycarbonyl)benzyl}adenine] | 23 | 25 |  | 
CCCCOc1nc(N)c2nc(O)n(Cc3cccc(C(=O)OCCOCc4ccccc4)c3)c2n1 [Example 5, 2-Butoxy-8-hydroxy-9-{3-(2-benzyloxyethoxycarbonyl)benzyl}adenine] | 18 |  |  | 
CCCCOc1nc(N)c2nc(O)n(Cc3cccc(C(=O)OCCN4CCOCC4)c3)c2n1 [Example 8, 2-Butoxy-8-hydroxy-9-{3-(2-morpholinoethoxycarbonyl)benzyl}adenine] | 16 | 1 |  | 
CCCCOc1nc(N)c2nc(O)n(Cc3cccc(C(=O)OCc4cccnc4)c3)c2n1 [Example 9, 2-Butoxy-8-hydroxy-9-{3-(3-pyridylmethoxycarbonyl)benzyl}adenine] | 1 |  |  | 
CCCCOc1nc(N)c2[nH]c(=O)n(Cc3ccc(C(=O)OC)cc3)c2n1 [Example 11, 2-Butoxy-8-hydroxy-9-(4-methoxycarbonylbenzyl)adenine] | 13 |  |  | 
CCCCOc1nc(N)c2nc(O)n(Cc3ccc(C(=O)OC(C)C)cc3)c2n1 [Example 12, 2-Butoxy-8-hydroxy-9-(4-isopropoxycarbonylbenzyl)adenine] | 29 |  |  | 
CCCCOc1nc(N)c2nc(O)n(Cc3ccc(C(=O)OCc4cccnc4)cc3)c2n1 [Example 13, 2-Butoxy-8-hydroxy-9-{4-(3-pyridylmethoxycarbonyl)benzyl}adenine] | 10 |  |  | 
CCCCOc1nc(N)c2nc(O)n(Cc3ccc(C(=O)OC(C)C)nc3)c2n1 [Example 18, 2-Butoxy-8-hydroxy-9-{(6-isopropoxycarbonyl-3-pyridyl)methyl}adenine] | 0 |  |  | 
CCCCOc1nc(N)c2nc(O)n(Cc3ccc(OCC(=O)OC)cc3)c2n1 [Example 22, 2-Butoxy-8-hydroxy-9-(4-methoxycarbonylmethoxybenzyl)adenine] | 0 | 31 |  | 
CCCCNc1nc(N)c2nc(O)n(Cc3ccc(C(=O)OC)cc3)c2n1 [Example 27, 2-Butylamino-8-hydroxy-9-(4-methoxycarbonylbenzyl)adenine] | 0 |  |  | 
COC(=O)CNc1nc(N)c2nc(O)n(Cc3ccccc3)c2n1 [Example 31, 9-Benzyl-8-hydroxy-2-methoxycarbonylmethylaminoadenine] | 0 | 3 |  | 
CCC(=O)OCCOc1nc(N)c2nc(O)n(Cc3ccc(C)nc3)c2n1 [Example 37, 8-Hydroxy-9-(6-methyl-3-pyridyl)methyl-2-{2-(propionyloxy)ethoxy}adenine] | 0 |  |  | 
CCOC(=O)CSc1nc(N)c2nc(O)n(Cc3ccccc3)c2n1 [Example 41, 9-Benzyl-2-(ethoxycarbonylmethyl)thio-8-hydroxyadenine] | 0 |  |  | Residual rate ([2]; rat liver S9, test compound 10 μM (*)): 2* %
CCCCCCCCOC(=O)CSc1nc(N)c2nc(O)n(Cc3ccccc3)c2n1 [Example 42, 9-Benzyl-8-hydroxy-2-(octyloxycarbonylmethyl)thioadenine] | 0 | 3 |  | 
CCOC(=O)CCc1nc(N)c2nc(O)n(Cc3ccccc3)c2n1 [Example 62, 9-Benzyl-2-ethoxycarbonylethyl-8-hydroxy adenine] |  |  |  | Minimum effective concentration (interferon inducing activity) [3]: 30 nM; Residual rate ([1]; test compound 1 μM (*)): 0* %
CCOC(=O)COc1nc(N)c2nc(O)n(Cc3ccccc3)c2n1 [Example 65, 9-Benzyl-2-ethoxycarbonylmethoxy-8-hydroxyadenine] |  |  | 0.03 | Residual rate ([1]; test compound 1 μM (*)): 0* %
CCCCOc1nc(N)c2nc(O)n(Cc3ccc(CC(=O)SCC)cc3)c2n1 [Example 75, 2-Butoxy-9-{4-(S-ethylthiocarbonyl)methylbenzyl}-8-hydroxyadenine] |  |  | 0.003 | Residual rate ([1]; test compound 1 μM (*)): 0* %
CCCCOc1nc(N)c2nc(O)n(Cc3ccc(CC(=O)OC)o3)c2n1 [Example 81, 2-Butoxy-8-hydroxy-9-(5-methoxycarbonylmethylfurfuryl)adenine] |  | 2 | 0.001 | 
CCCCOc1nc(N)c2nc(O)n(Cc3ccc(C(=O)SC)nc3)c2n1 [Example 82, 2-Butoxy-8-hydroxy-9-{(6-S-methylthiocarbonyl-3-pyridyl)methyl}adenine] |  | 2 |  | Minimum effective concentration (interferon inducing activity) [3]: 100 nM
CCCCOc1nc(N)c2[nH]c(=O)n(Cc3cccc(CCC(=O)OC)c3)c2n1 [Example 84, 2-Butoxy-8-hydroxy-9-(3-methoxycarbonylethylbenzyl)adenine] |  | 1 | 0.01 | 
CCCCOc1nc(N)c2nc(O)n(Cc3ccc(C(=O)OC)c(C(=O)OC)c3)c2n1 [Example 90, 2-Butoxy-9-(3,4-dimethoxycarbonylbenzyl)-8-hydroxyadenine] |  | 3 | 0.0003 | 
CCCCOc1nc(N)c2nc(O)n(Cc3ccc(OC(O)CCC(=O)OC)cc3)c2n1 (stereo not shown) [Example 95, 2-Butoxy-9-{4-(1-hydroxy-3-methoxycarbonylpropoxy)benzyl}-8-hydroxyadenine] |  | 4 | 0.001 | 
COCCOc1nc(N)c2[nH]c(=O)n(Cc3cccc(CC(=O)OC)c3)c2n1 [Example 96, 8-Hydroxy-9-(3-methoxycarbonylmethylbenzyl)-2-(2-methoxyethoxy)adenine] |  | 0 | 0.003 | 
CCCCOc1nc(N)c2nc(O)n(Cc3ccc(C(C)C(=O)OC)cc3)c2n1 (stereo not shown) [Example 100, 2-Butoxy-8-hydroxy-9-[4-(1-methoxycarbonylethyl)benzyl]adenine] |  | 1 | 0.0003 | 
COC(=O)Cc1cccc(CSc2nc(N)c3nc(O)n(Cc4ccccc4)c3n2)c1 [Example 105, 9-Benzyl-8-hydroxy-2-[(3-methoxycarbonylmethylbenzyl)thio]adenine] |  | 1 | 0.3 | 
COC(=O)Cc1ccc(CSc2nc(N)c3nc(O)n(Cc4ccccc4)c3n2)cc1 [Example 106, 9-Benzyl-8-hydroxy-2-[(4-methoxycarbonylmethylbenzyl)thio]adenine] |  | 3 | 0.1 | 
CCCCOC(=O)Cc1nc(N)c2nc(O)n(Cc3ccccc3)c2n1 [Example 107, 9-Benzyl-2-butoxycarbonylmethyl-8-hydroxyadenine] |  | 3 | 0.1 | 
CC(C)OC(=O)Cc1nc(N)c2nc(O)n(Cc3ccccc3)c2n1 [Example 108, 9-Benzyl-8-hydroxy-2-(isopropoxycarbonylmethyl)adenine] |  | 3 | 0.03 | 
Nc1nc(CC(=O)OCCF)nc2c1nc(O)n2Cc1ccccc1 [Example 109, 9-Benzyl-2-(2-fluoroethoxycarbonyl)methyl-8-hydroxyadenine] |  | 0 | 0.03 | 
